Test results: patent publication US9695155B2, “Herbicidal substituted pyrimidinyloxy benzene compounds” (E. I. DU PONT DE NEMOURS AND COMPANY, priority 2013, dated 2017)

Tests used:
[1] = test system: spring wheat; assay: Test D postemergence; type: in vivo, Triticum aestivum; conditions: Triticum aestivum, post-emergence, scale 0 to 100 (0 no effect, 100 complete control), read-out: Plant response rating, Wheat, Spring
Outline: (§1)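 Values are 0–100 visual control ratings (0 none, 100 complete) given 7–21 days after application. Soil for preemergence was silt loam; postemergence plants stood 2–18 cm tall.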

[2] = test system: winter wheat; assay: Test D postemergence; type: in vivo, Triticum aestivum; conditions: Triticum aestivum, post-emergence, scale 0 to 100 (0 no effect, 100 complete control), read-out: Plant response rating, Wheat, Winter
Outline: as §1

[3] = test system: soybean; assay: Test E postemergence; type: in vivo, Glycine max; conditions: Glycine max, post-emergence
Outline: (§2)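 Response was scored visually on a 0-100 scale (100 = complete control) versus controls after 14 to 21 days in the greenhouse. Test chemicals, formulated with surfactant in a non-phytotoxic solvent mixture, had been applied preemergence to seeds in silt loam soil or postemergence to 1- to 4-leaf plants in potting medium.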

[4] = test system: arrowleaf sida; assay: Test E postemergence; type: in vivo, Sida rhombifolia; conditions: Sida rhombifolia, post-emergence, read-out: Plant response rating, Arrowleaf Sida
Outline: as §2

[5] = test system: spring wheat; assay: Test D preemergence; type: in vivo, Triticum aestivum; conditions: Triticum aestivum, pre-emergence
Outline: as §1

[6] = test system: winter wheat; assay: Test D preemergence; type: in vivo, Triticum aestivum; conditions: Triticum aestivum, pre-emergence
Outline: as §1

[7] = test system: sandbur; assay: Test E postemergence; type: in vivo, Cenchrus echinatus; conditions: Cenchrus echinatus, post-emergence, read-out: Plant response rating, Sandbur
Outline: as §2

[8] = test system: field violet; assay: Test D postemergence; type: in vivo, Viola arvensis; conditions: Viola arvensis, post-emergence, scale 0 to 100 (0 no effect, 100 complete control), read-out: Plant response rating, Field Violet
Outline: as §1

[9] = test system: field poppy; assay: Test D preemergence; type: in vivo, Papaver rhoeas; conditions: Papaver rhoeas, pre-emergence, scale 0-100, read-out: Plant response rating, Field Poppy
Outline: as §1

[10] = test system: corn; assay: Test E postemergence; type: in vivo, Zea mays; conditions: Zea mays, post-emergence
Outline: as §2

[11] = test system: Brazilian crabgrass; assay: Test E postemergence; type: in vivo, Digitaria horizontalis; conditions: Digitaria horizontalis, post-emergence, read-out: Plant response rating, Crabgrass, Brazil
Outline: as §2

[12] = Postemergence, 31 g ai/ha, scale 0 to 100
[13] = Postemergence, 62 g ai/ha, scale 0 to 100
[14] = Postemergence, 125 g ai/ha, scale 0 to 100
[15] = Postemergence, 250 g ai/ha, scale 0 to 100
[16] = postemergence, 16 g ai/ha, scale 0 to 100, 0 no effect, 100 complete control

N#Cc1cccc(Oc2ncc(Cl)cn2)c1-n1cc(C(F)(F)F)cn1 [Compound 58, 3-[(5-chloro-2-pyrimidinyl)oxy]-2-[4-(trifluoromethyl)-1H-pyrazol-1-yl]benzonitrile]
plant injury at 31 g/ha ([1]; 31 g ai/ha): 10%
plant injury at 62 g/ha ([1]; 62 g ai/ha): 15%
plant injury at 125 g/ha ([1]; 125 g ai/ha): 20%
plant injury at 250 g/ha ([1]; 250 g ai/ha): 35%
plant injury at 31 g/ha ([2]; 31 g ai/ha): 15%
plant injury at 62 g/ha ([2]; 62 g ai/ha): 20%
plant injury at 125 g/ha ([2]; 125 g ai/ha): 25%
plant injury at 250 g/ha ([2]; 250 g ai/ha): 40%
plant response (crop injury) rating, soybean, 0-100 scale at 31 g/ha [3, 12]: 95%
plant response (crop injury) rating, soybean, 0-100 scale at 62 g/ha [3, 13]: 95%
plant response (crop injury) rating, soybean, 0-100 scale at 125 g/ha [3, 14]: 95%
plant response (crop injury) rating, soybean, 0-100 scale at 250 g/ha [3, 15]: 100%
plant response (crop injury) rating, soybean, 0-100 scale at 16 g/ha [3, 16]: 75%
pest or weed control at 31 g/ha [4, 12]: 80%
pest or weed control at 62 g/ha [4, 13]: 90%
pest or weed control at 125 g/ha [4, 14]: 95%
pest or weed control at 250 g/ha [4, 15]: 98%
pest or weed control at 16 g/ha [4, 16]: 70%
plant injury at 31 g/ha ([5]; 31 g ai/ha, scale 0 (no effect) to 100 (complete control), read-out: Plant response rating, Wheat, Spring): 0%
plant injury at 62 g/ha ([5]; 62 g ai/ha, scale 0-100, read-out: Plant response rating, Wheat, Spring): 15%
plant injury at 125 g/ha ([5]; 125 g ai/ha, scale 0-100, read-out: Plant response rating, Wheat, Spring): 75%
plant injury at 250 g/ha ([5]; 250 g ai/ha, scale 0-100, read-out: Plant response rating, Wheat, Spring): 100%
plant injury at 31 g/ha ([6]; 31 g ai/ha, scale 0 (no effect) to 100 (complete control), read-out: Plant response rating, Wheat, Winter): 0%
plant injury at 62 g/ha ([6]; 62 g ai/ha, scale 0-100, read-out: Plant response rating, Wheat, Winter): 20%
plant injury at 125 g/ha ([6]; 125 g ai/ha, scale 0-100, read-out: Plant response rating, Wheat, Winter): 50%
plant injury at 250 g/ha ([6]; 250 g ai/ha, scale 0-100, read-out: Plant response rating, Wheat, Winter): 90%
pest or weed control at 31 g/ha [7, 12]: 10%
pest or weed control at 62 g/ha [7, 13]: 10%
pest or weed control at 125 g/ha [7, 14]: 20%
pest or weed control at 250 g/ha [7, 15]: 55%
pest or weed control at 16 g/ha [7, 16]: 0%
pest or weed control at 31 g/ha ([8]; 31 g ai/ha): 100%
pest or weed control at 62 g/ha ([8]; 62 g ai/ha): 100%
pest or weed control at 125 g/ha ([8]; 125 g ai/ha): 100%
pest or weed control at 250 g/ha ([8]; 250 g ai/ha): 100%
pest or weed control at 31 g/ha ([9]; 31 g ai/ha): 95%
pest or weed control at 62 g/ha ([9]; 62 g ai/ha): 100%
pest or weed control at 125 g/ha ([9]; 125 g ai/ha): 100%
pest or weed control at 250 g/ha ([9]; 250 g ai/ha): 100%
corn plant response (injury) rating, 0-100 at 31 g/ha [10, 12]: 10%
corn plant response (injury) rating, 0-100 at 62 g/ha [10, 13]: 10%
corn plant response (injury) rating, 0-100 at 125 g/ha [10, 14]: 10%
corn plant response (injury) rating, 0-100 at 250 g/ha [10, 15]: 15%
corn plant response (injury) rating, 0-100 at 16 g/ha [10, 16]: 5%
pest or weed control at 31 g/ha [11, 12]: 20%
pest or weed control at 62 g/ha [11, 13]: 40%
pest or weed control at 125 g/ha [11, 14]: 55%
pest or weed control at 250 g/ha [11, 15]: 75%
pest or weed control at 16 g/ha [11, 16]: 10%
